Each structure is given as a SMILES string.

In test [1] the target is recombinant human CB1 receptor (Homo sapiens, UniProt P21554). The test can be described thus: Cannabinoid Receptor-1 (CB1) Binding (IC50) Assay. Conditions: [3H]CP-55940 0.6 nM, CHO cell membranes.
Test [2] deals with recombinant human CB1 receptor expressed in CHO cells (Homo sapiens, UniProt P21554). The test can be described thus: Cannabinoid Receptor-1 (CB1) Functional Activity (EC50) Assay. It is filed as cell-based. The settings on record: forskolin-stimulated intracellular cAMP.
Chain of recombinant human CB1 receptor expressed in CHO cells (P21554 whole entry): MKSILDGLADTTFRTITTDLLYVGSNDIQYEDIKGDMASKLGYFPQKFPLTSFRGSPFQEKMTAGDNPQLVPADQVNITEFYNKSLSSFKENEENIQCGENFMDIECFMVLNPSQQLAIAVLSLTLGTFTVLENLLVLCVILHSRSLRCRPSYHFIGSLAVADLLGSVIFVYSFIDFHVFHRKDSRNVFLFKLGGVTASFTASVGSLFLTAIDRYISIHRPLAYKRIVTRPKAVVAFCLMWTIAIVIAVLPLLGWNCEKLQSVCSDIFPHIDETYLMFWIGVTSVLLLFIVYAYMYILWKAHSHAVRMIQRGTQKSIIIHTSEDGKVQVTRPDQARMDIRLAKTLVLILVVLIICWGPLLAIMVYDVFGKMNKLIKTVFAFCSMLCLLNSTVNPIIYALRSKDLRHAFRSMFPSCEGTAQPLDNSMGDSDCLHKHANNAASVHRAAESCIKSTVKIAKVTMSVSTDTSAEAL
In a further test the test system is mice. Conditions: Mazzola et al.; cited from earlier work.
The test system of the next test is rodent models. Conditions: naïve as well as scopolamine or Aβ-treated rodent models; Terranova et al.; cited from earlier work.
Test [3] concerns rodent model of episodic memory. Conditions: in combination with Donepezil; Wise et al.; cited from earlier work.

Chain of recombinant human CB1 receptor (P21554 whole entry): as above

For `CC(NC(=O)C(C)(C)Oc1ccccn1)C(Cc1ccc(Cl)cc1)c1cc(F)cc(F)c1` (single isomer, unassigned) [Example I-25, N-[3-(4-Chloro-phenyl)-2-(3,5-difluorophenyl)-1-methylpropyl]-2-methyl-2-(2-pyridyloxy)-propanamide], the IC50 in test [1] worked out at 0.45 nM. For the same molecule, the EC50 in test [2] amounted to 1.33 nM. The like results for `CC(NC(=O)C(C)(C)Oc1ccc(C(F)(F)F)cn1)C(Cc1ccc(Cl)cc1)c1cncc(C#N)c1` (single isomer, unassigned) [Example I-39, N-[3-(4-Chloro-phenyl)-2-(5-cyano-3-pyridyl)-1-methylpropyl]-2-(5-trifluoromethyl-2-pyridyloxy)-2-methylpropanamide] were, in that order, 3 nM and 1.5 nM.

In the case of `CC(C)CC(c1cccc(C#N)c1)C(C)NC(=O)C(C)(C)Oc1ccc(C(F)(F)F)cn1` (single isomer, unassigned) [Example I-60, N-(2-(3-cyano-phenyl)-1,4-dimethylpentyl)-2-methyl-2((5-(trifluoromethyl)-pyridin-2-yl)oxy)-propanamide], the IC50 in test [1] was 1.39 nM. Also, the EC50 in test [2] came out at 2 nM. As to `CC(NC(=O)C(C)(C)Oc1ccc(C(F)(F)F)cn1)C(CC1CCCC1)c1cccc(C#N)c1` (single isomer, unassigned) [Example I-62, N-(2-(3-cyano-phenyl)-3-cyclopentyl-1-methylpropyl)-2-methyl-2((5-(trifluoromethyl)-pyridin-2-yl)oxy)-propanamide], the IC50 in test [1] was determined as 0.33 nM. In test [2], the EC50 was 2 nM. The like results for `CC(NC(=O)C(C)(C)Oc1ccccn1)C(Cc1ccc(Cl)cc1)c1ccccc1` (stereo not drawn) [Example I-6, N-[3-(4-Chloro-phenyl)-1-methyl-2-phenylpropyl]-2-(2-pyridyloxy)-2-methylpropanamide] were, in that order, 2.3 nM and 2.1 nM. The matching figures for `CC(NC(=O)C(C)(C)Oc1cc(C(F)(F)F)ncn1)C(Cc1ccc(Cl)cc1)c1cccc(C#N)c1` (stereo not drawn) [Example I-36, N-[3-(4-Chloro-phenyl)-2-(3-cyanophenyl)-1-methylpropyl]-2-(6-trifluoromethyl-4-pyrimidyloxy)-2-methylpropanamide]: 0.66 nM and 1.25 nM. The like results for `CC(NC(=O)C(C)(C)Oc1ccc(Cl)cn1)C(Cc1ccc(Cl)cc1)c1ccsc1` (stereo not drawn) [Example I-59] were, in that order, 7.28 nM and 14 nM. Regarding `CC(NC(=O)C(C)(C)Oc1ccc(C(F)(F)F)cn1)C(Cc1ccc(Cl)cc1)c1cc(C#N)c[n+]([O-])c1` (stereo not drawn) [Example I-64], in test [1], the IC50 turned out to be 29.4 nM. In addition, in test [2], the EC50 worked out at 13 nM. The matching figures for `CC(C)(F)[C@H](c1cc(F)cc(C#N)c1)C1CN([C@@H](c2ccc(C#N)cc2)c2cccc(C#N)c2)C1` [II]: 3 nM and 2 nM. Take `Cc1c(C(=O)NN2CCCCC2)nn(-c2ccc(Cl)cc2Cl)c1-c1ccc(Cl)cc1` [SR 141716]: the “effect on memory deficit induced by Aβ-administration” value with mice was “improves the memory deficit”. As for `Cc1c(C(=O)NN2CCCCC2)nn(-c2ccc(Cl)cc2Cl)c1-c1ccc(Cl)cc1` [rimonabant], in the test on rodent models, the “effect on learning and memory performance” value is “improves learning and memory performance”. The “effect on cognition scores” value in test [3] is reported as “additive effects on cognition scores”.

A word on the IC50: it is the concentration needed to halve the response being measured. In general, EC50 refers to the concentration at which the effect is half-maximal.

These data come from patent US20100227844A1, “CANNABINOID-1 RECEPTOR MODULATORS USEFUL FOR THE TREATMENT OF ALZHEIMER'S DISEASE” (priority 2007, published 2010).
